The target of assay [1] is T1, Full length DGKζ (in-house protein M1-V929) (Homo sapiens, UniProt Q13574).
T1 construct: His (N); TEV site (N); made in house; host or cells: Sf9 insect cells (Bac-to-Bac baculovirus)
The assay can be described thus: Biochemical DGK IC50 assay (ADP-Glo, lipid micelle substrate), DGKζ. Particulars: 1 hour preincubation, 1 hour reaction, room temperature. The method, then: (§1) Enzymatic reactions of DGKζ, DGKα and DGKδ were performed using ADP-Glo assay with lipid micelle substrate. […] Full length DGKα (D21-10BG, SignalChem) and full length DGKδ (D23-10G, SignalChem) were purchased. Lipid micelle was prepared by dissolving DAG (Sigma, 317505-10 MG) and PS (Sigma, P7769-100 MG) with chloroform which was furtherly removed by rotary evaporation. The obtained residue was resuspended in buffer containing 25 mM HEPES pH 7.0, 0.5 mM EDTA and 160 mM Octyl β-D glucopyranoside by vigorous mixing and ultrasonic (IID, Scientz).
(§2) The inhibition activities testing for the compound disclosed herein were carried out at room temperature in assay buffer containing 50 mM HEPES, 10 mM MgCl2, 0.01% BSA, 0.1 mM Na3VO4, 0.005% Tween-20 and 0.01 mM CaCl2). Compounds in DMSO were dispensed into wells of a black 384 well plate (Corning 4514) using D300e digital dispenser (Tecan). […] 3 μL 2× enzyme solution was added to wells. […] After 1 hour reaction, 5 μL ADP-Glo reagent (Promga V9101) was added and incubated for 40 minutes. 10 μL Kinase Detection reagent was added and incubated for 30 minutes. Luminescence was measured on a microplate reader (PHERAstar FSX, BMG labtech). The IC50S are calculated based on inhibition of enzyme activity in the presence of increasing concentrations of compounds.
Human His-TEV-DGK-zeta-pFastBac1 and human baculovirus samples was generated using the Bac- to -Bac baculovirus expression system (Invitrogen) according to the manufacturer's protocol. The DNA used for expression of DGK-zeta, have SEQ ID Nos: 1. Baculovirus amplification was achieved using infected SF9 cells at 1:2000 virus/cells ratios, and grown for 96 hours at 27° C. post-transfected.
The expression scaled up for each protein was carried out in the […] from CORNING. 4 L of 3×10^6 cells/mL Sf9 cells (Expression System, Invitrogen) grown in SF900™ II SFM insect medium (Expression System) was infected with virus stock at 1:200 virus/cells ratio, and grown for 48 hours at 27° C. post-transfection. The infected cell culture was harvested by centrifugation at 6000 rpm for 15 min 4° C. in a SORVALL LYNX6000 centrifuge. The cell pellets were stored at −80° C.
Full length human DGKζ produced as described above, was purified from Sf9 baculovirus-infected insect cell paste. The cells were lysed using sonication method, and the lysates were clarified by centrifugation.
A general note: ADP-Glo turns the ADP formed in a reaction into a luminescent signal.

Assay [2] addresses T2, Full length DGKα (D21-10BG, SignalChem) (Homo sapiens, UniProt P23743).
T2 construct: Full length DGKα (D21-10BG, SignalChem); purchased SignalChem D21-10BG
Nature of the assay: Biochemical DGK IC50 assay (ADP-Glo, lipid micelle substrate), DGKα. Particulars: 1 hour preincubation, 1 hour reaction, room temperature. The method, then:
as §1, §2

In US20260125378A2, “Heterocyclic Compounds” (BeOne Medicines I GmbH, priority 2023, published 2026) one finds IC50 data, which are given here for 23 compounds.

The term IC50 denotes the midpoint of a concentration-inhibition curve. A lower IC50 goes with higher potency.

T2 sequence (P23743 whole entry): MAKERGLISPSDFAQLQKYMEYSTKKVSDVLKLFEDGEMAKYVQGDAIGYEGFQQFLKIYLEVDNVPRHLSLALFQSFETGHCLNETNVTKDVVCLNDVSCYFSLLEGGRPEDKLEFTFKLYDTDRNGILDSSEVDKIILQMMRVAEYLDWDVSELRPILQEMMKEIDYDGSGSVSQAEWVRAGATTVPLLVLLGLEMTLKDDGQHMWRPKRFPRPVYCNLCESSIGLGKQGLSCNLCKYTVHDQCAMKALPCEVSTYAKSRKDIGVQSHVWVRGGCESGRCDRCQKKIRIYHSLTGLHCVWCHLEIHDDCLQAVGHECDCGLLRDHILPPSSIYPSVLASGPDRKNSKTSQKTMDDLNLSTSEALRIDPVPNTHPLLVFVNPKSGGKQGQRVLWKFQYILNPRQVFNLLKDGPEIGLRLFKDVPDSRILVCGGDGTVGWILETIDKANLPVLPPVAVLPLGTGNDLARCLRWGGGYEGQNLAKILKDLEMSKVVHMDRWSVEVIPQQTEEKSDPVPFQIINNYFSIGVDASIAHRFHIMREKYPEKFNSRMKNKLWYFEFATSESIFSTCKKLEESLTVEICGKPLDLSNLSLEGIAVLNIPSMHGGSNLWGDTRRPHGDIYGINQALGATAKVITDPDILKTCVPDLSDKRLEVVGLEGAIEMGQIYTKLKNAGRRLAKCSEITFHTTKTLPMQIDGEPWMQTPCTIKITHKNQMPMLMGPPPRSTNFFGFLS
T1 sequence (Q13574 1-929 isoform Q13574-4): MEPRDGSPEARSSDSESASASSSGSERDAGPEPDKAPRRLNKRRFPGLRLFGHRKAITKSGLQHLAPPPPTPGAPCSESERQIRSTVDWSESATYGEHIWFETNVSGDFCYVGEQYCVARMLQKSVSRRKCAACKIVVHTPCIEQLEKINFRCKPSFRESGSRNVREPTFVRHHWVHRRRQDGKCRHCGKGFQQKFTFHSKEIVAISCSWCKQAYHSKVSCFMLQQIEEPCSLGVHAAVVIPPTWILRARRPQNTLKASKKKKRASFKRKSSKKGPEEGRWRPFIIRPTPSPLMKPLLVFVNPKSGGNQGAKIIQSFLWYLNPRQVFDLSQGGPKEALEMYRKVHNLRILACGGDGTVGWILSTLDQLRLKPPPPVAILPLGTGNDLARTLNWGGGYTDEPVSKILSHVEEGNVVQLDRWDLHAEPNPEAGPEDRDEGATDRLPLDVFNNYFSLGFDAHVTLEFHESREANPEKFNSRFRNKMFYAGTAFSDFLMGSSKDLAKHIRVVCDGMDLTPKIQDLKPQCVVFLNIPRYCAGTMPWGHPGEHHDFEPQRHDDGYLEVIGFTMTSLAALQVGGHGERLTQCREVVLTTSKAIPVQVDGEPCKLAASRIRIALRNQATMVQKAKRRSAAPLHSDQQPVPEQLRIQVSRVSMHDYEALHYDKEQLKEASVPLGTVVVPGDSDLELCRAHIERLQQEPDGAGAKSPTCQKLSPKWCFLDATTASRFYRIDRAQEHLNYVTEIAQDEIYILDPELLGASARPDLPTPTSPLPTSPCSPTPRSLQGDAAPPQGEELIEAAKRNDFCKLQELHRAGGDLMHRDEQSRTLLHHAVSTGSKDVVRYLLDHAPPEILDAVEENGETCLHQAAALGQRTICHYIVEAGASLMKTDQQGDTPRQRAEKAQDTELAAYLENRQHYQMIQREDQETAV

As to `CC(OC(F)F)c1cc(F)ccc1C(C)N1C[C@H](C)N(c2nc(=O)n(C)c3c2nc(CC#N)n3C)C[C@H]1C` (single isomer, unassigned) [Compound A29a], the IC50 is 437 nM in assay [1] and > 150000 nM in assay [2].
As to `CCn1c(CC#N)nc2c(N3C[C@@H](C)N(C(C)c4ccc5c(c4)C(F)(F)CCO5)C[C@@H]3C)nc(=O)n(C)c21` (stereo partly drawn) [Compound A78, 2-(6-((2S,5R)-4-(1-(4,4-difluorochroman-6-yl)ethyl)-2,5-dimethylpiperazin-1-yl)-9-ethyl-3-methyl-2-oxo-3,9-dihydro-2H-purin-8-yl)acetonitrile], the values for the IC50 in assay [1] and in assay [2] were 7 nM and 102000 nM, respectively.
Consider `CCn1c(CC#N)nc2c(N3C[C@@H](C)N(C(C)c4cccc(C(C)C)c4)C[C@@H]3C)nc(=O)n(C)c21` (single isomer, unassigned) [Compound A108a], for which the half-inhibitory concentration (IC50) in assay [1] came to 7 nM; in assay [2], 65200 nM.
With `CC(c1ccc2c(c1F)OC(C)(C)CO2)N1C[C@H](C)N(c2nc(=O)n(C)c3c2nc(CC#N)n3C)C[C@H]1C` (stereo partly drawn) [Compound A70, 2-(6-((2S,5R)-4-(1-(5-fluoro-3,3-dimethyl-2,3-dihydrobenzo[b][1,4]dioxin-6-yl)ethyl)-2,5-dimethylpiperazin-1-yl)-3,9-dimethyl-2-oxo-3,9-dihydro-2H-purin-8-yl)acetonitrile], the IC50 amounted to 8 nM in assay [1] and 9690 nM in assay [2].
Take `CCn1c(CC#N)nc2c(N3C[C@@H](C)N(C(C)c4ccc(F)c(C(F)F)c4)C[C@@H]3C)nc(=O)n(C)c21` (stereo partly drawn) [Compound A112, 2-(6-((2S,5R)-4-(1-(3-(difluoromethyl)-4-fluorophenyl)ethyl)-2,5-dimethylpiperazin-1-yl)-9-ethyl-3-methyl-2-oxo-3,9-dihydro-2H-purin-8-yl)acetonitrile]: the figures for the half-maximal inhibitory concentration (IC50) in assay [1] and in assay [2] were 35 nM and > 150000 nM, respectively.
The corresponding values for `CCn1c(CC#N)nc2c(N3C[C@@H](C)N(C(C)c4ccc5c(n4)OC(C)(C)CO5)C[C@@H]3C)c(F)c(=O)n(C)c21` (stereo partly drawn) [Compound A21, 2-(7-((2S,5R)-4-(1-(3,3-dimethyl-2,3-dihydro-[1,4]dioxino[2,3-b]pyridin-6-yl)ethyl)-2,5-dimethylpiperazin-1-yl)-3-ethyl-6-fluoro-4-methyl-5-oxo-4,5-dihydro-3H-imidazo[4,5-b]pyridin-2-yl)acetonitrile] are 61 nM and > 150000 nM.
Take `CCn1c(CC#N)nc2c(N3C[C@@H](C)N(C(C)c4cc(C)c5c(c4)OC(C)(C)O5)C[C@@H]3C)nc(=O)n(C)c21` (stereo partly drawn) [Compound A177, 2-(6-((2S,5R)-2,5-dimethyl-4-(1-(2,2,7-trimethylbenzo[d][1,3]dioxol-5-yl)ethyl)piperazin-1-yl)-9-ethyl-3-methyl-2-oxo-3,9-dihydro-2H-purin-8-yl)acetonitrile]: the values for the IC50 in assay [1] and in assay [2] were 168 nM and 72600 nM, respectively.
On to `CCn1c(CC#N)nc2c(N3C[C@@H](C)N(C(C)c4ccc(OC)c(C(C)(F)F)c4)C[C@@H]3C)nc(=O)n(C)c21` (stereo partly drawn) [Compound A39, 2-(6-((2S,5R)-4-(1-(3-(1,1-difluoroethyl)-4-methoxyphenyl)ethyl)-2,5-dimethylpiperazin-1-yl)-9-ethyl-3-methyl-2-oxo-3,9-dihydro-2H-purin-8-yl)acetonitrile], for which the IC50 in assay [1] was 211 nM; in assay [2], > 150000 nM.
In the case of `CCn1c(CC#N)nc2c(N3C[C@@H](C)N(C(C)c4cccc(C(F)(F)F)c4)C[C@@H]3C)nc(=O)n(C)c21` (single isomer, unassigned) [Compound A42a], the IC50 in assay [1] amounted to 24 nM; in assay [2], 78700 nM.
In the case of `CCn1c(CC#N)nc2c(N3C[C@@H](C)N(C(C)c4cc5c(cc4F)OC(C)(C)O5)C[C@@H]3C)nc(=O)n(C)c21` (single isomer, unassigned) [Compound A174b], the IC50 in assay [1] was 69 nM; in assay [2], 30600 nM.
As for `CCn1c(CC#N)nc2c(N3C[C@@H](C)N(C(C)c4ccc5c(c4)OC(C)(CC)O5)C[C@@H]3C)nc(=O)n(C)c21` (stereo partly drawn) [Compound A168, 2-(9-ethyl-6-((2S,5R)-4-(1-(2-ethyl-2-methylbenzo[d][1,3]dioxol-5-yl)ethyl)-2,5-dimethylpiperazin-1-yl)-3-methyl-2-oxo-3,9-dihydro-2H-purin-8-yl)acetonitrile], the half-maximal inhibitory concentration (IC50) in assay [1] was 26 nM; in assay [2], 64300 nM.
In the case of `CC(OC(F)F)c1cc(F)ccc1C(C)N1C[C@H](C)N(c2nc(=O)n(C)c3c2nc(CC#N)n3C)C[C@H]1C` (single isomer, unassigned) [Compound A29b], the values for the IC50 in assay [1] and in assay [2] were 4 nM and 136000 nM, respectively.
`CCn1c(CC#N)nc2c(N3C[C@@H](C)N(C(C)c4cccc(C5COC5)c4)C[C@@H]3C)nc(=O)n(C)c21` (stereo partly drawn) [Compound A127, 2-(6-((2S,5R)-2,5-dimethyl-4-(1-(3-(oxetan-3-yl)phenyl)ethyl)piperazin-1-yl)-9-ethyl-3-methyl-2-oxo-3,9-dihydro-2H-purin-8-yl)acetonitrile]: the IC50 in assay [1] is 428 nM; in assay [2], > 150000 nM.
With `CCn1c(CC#N)nc2c(N3C[C@@H](C)N(C(C)c4ccc5c(c4)OC4(CCC4)O5)C[C@@H]3C)nc(=O)n(C)c21` (single isomer, unassigned) [Compound A169a], the IC50 in assay [1] was found to be 10 nM; in assay [2] it was 31700 nM.
The corresponding values for `Cc1ccc(C(C)N2C[C@H](C)N(c3nc(=O)n(C)c4c3nc(CC#N)n4C)C[C@H]2C)c(C(F)(F)F)c1` (single isomer, unassigned) [Compound A32b] are 138 nM and 5590 nM.
`COc1cc(F)ccc1C(C)N1C[C@H](C)N(c2nc(=O)n(C)c3c2nc(CC#N)n3C)C[C@H]1C` (single isomer, unassigned) [Compound A24b]: the results for the IC50 in assay [1] and in assay [2] were 42 nM and 131000 nM, respectively.
As for `CC(c1ccc2c(c1)OC(C)(C)O2)N1C[C@H](C)N(c2nc(=O)n(C)c3c2nc(CC#N)n3C)C[C@H]1C` (stereo partly drawn) [Compound A98, 2-(6-((2S,5R)-4-(1-(2,2-dimethylbenzo[d][1,3]dioxol-5-yl)ethyl)-2,5-dimethylpiperazin-1-yl)-3,9-dimethyl-2-oxo-3,9-dihydro-2H-purin-8-yl)acetonitrile], the half-inhibitory concentration (IC50) in assay [1] was found to be 5 nM; in assay [2] it was 11600 nM.
For `CCc1nc2cc(C(C)N3C[C@H](C)N(c4nc(=O)n(C)c5c4nc(CC#N)n5CC)C[C@H]3C)ccc2s1` (single isomer, unassigned) [Compound A95a], the IC50 in assay [1] came to 11 nM; in assay [2] it was 24700 nM.
For the compound `CC[C@H]1CN(C(C)c2ccc(C(F)(F)F)cc2)[C@H](CC)CN1c1nc(=O)n(C)c2c1nc(CC#N)n2C` (single isomer, unassigned) [Compound A149b], the figures for the IC50 in assay [1] and in assay [2] were 15 nM and 308 nM, respectively.
With `Cc1cccc(C(C)N2C[C@H](C)N(c3c(F)c(=O)n(C)c4c3nc(CC#N)n4C)C[C@H]2C)c1C(F)(F)F` (single isomer, unassigned) [Compound A17b], the IC50 was 409 nM in assay [1] and 1580 nM in assay [2].
On to `CCn1c(CC#N)nc2c(N3C[C@@H](C)N(C(C)c4cc5c(cc4F)OC(C)(C)CO5)C[C@@H]3C)nc(=O)n(C)c21` (single isomer, unassigned) [Compound A156b], for which the concentration for half-maximal inhibition (IC50) in assay [1] came to 6 nM; in assay [2], 14100 nM.
With `CCn1c(CC#N)nc2c(N3C[C@@H](C)N(C(C)c4ccc5c(n4)OC(C)(C)CO5)C[C@@H]3C)nc(=O)n(C)c21` (stereo partly drawn) [Compound A74, 2-(6-((2S,5R)-4-(1-(3,3-dimethyl-2,3-dihydro-[1,4]dioxino[2,3-b]pyridin-6-yl)ethyl)-2,5-dimethylpiperazin-1-yl)-9-ethyl-3-methyl-2-oxo-3,9-dihydro-2H-purin-8-yl)acetonitrile], the IC50 is 45 nM in assay [1] and > 150000 nM in assay [2].
Take `CCn1c(CC#N)nc2c(N3C[C@@H](C)N(C(C)c4ccc(=O)n(C)c4)C[C@@H]3C)nc(=O)n(C)c21` (stereo partly drawn) [Compound A106, 2-(6-((2S,5R)-2,5-dimethyl-4-(1-(1-methyl-6-oxo-1,6-dihydropyridin-3-yl)ethyl)piperazin-1-yl)-9-ethyl-3-methyl-2-oxo-3,9-dihydro-2H-purin-8-yl)acetonitrile]: the 50% inhibitory concentration (IC50) in assay [1] was > 10000 nM; in assay [2], > 150000 nM.
